Reference: patent US10688082B2, “Aminopyrazine compounds with A2A antagonist properties” (Merck Sharp & Dohme Corp., priority 2015, dated 2020)

Each molecule was assayed against T1, human A2a receptor (Homo sapiens, UniProt P29274) (assay: Competition binding assay using Scintillation Proximity technology (A2a activity)). Settings: membranes from HEK293 cells expressing the human A2a receptor; 0.5 nM tritiated ligand; Cheng-Prusoff.
T1 construct: purchased Perkin-Elmer RBHA2AM400UA; host or cells: HEK293 cells (membranes)
T1 sequence (P29274 whole entry): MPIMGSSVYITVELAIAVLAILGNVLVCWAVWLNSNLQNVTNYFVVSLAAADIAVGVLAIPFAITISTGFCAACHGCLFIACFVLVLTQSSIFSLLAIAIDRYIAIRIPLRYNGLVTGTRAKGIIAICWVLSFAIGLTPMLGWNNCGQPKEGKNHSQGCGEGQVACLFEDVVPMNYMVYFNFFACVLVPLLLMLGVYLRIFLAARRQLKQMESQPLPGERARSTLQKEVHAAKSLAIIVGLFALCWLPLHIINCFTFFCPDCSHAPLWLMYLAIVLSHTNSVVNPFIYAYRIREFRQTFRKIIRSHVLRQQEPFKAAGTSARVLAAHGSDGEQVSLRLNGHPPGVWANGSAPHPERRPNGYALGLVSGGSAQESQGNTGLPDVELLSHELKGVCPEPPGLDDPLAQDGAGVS
Outline: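 Membranes from HEK293 cells expressing human A2a, pretreated with adenosine deaminase, competed against 0.5 nM tritiated pyrazolotriazolopyrimidine ligand with WGA SPA beads, 1 h at room temperature with agitation. Compounds 3000–0.152 nM final; nonspecific binding with 1 μM CGS15943. Ki from […] via Cheng-Prusoff.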

SMILES	Ki
Nc1nc2ccccc2c2cc(Cc3ccnc4ccccc34)nn12 [Ex-95, 2-(quinolin-4-ylmethyl)pyrazolo[1,5-c]quinazolin-5-amine]	0.068 µM
Nc1nc2ccccc2c2cc(Cc3ccccc3N3CCOCC3)nn12 [Ex-96, 2-(2-morpholinobenzyl)pyrazolo[1,5c]-quinazolin-5-amine]	0.053 µM
Nc1nc2ccccc2c2cc(Cc3ccccc3CN3CCOCC3)nn12 [Ex-97, 2-(2-(morpholinomethyl)-bcnzyl)pyrazolo[1,5-c]-quinazolin-5-amine]	0.051 µM
COc1cccc2c1nc(N)n1nc(-c3nnc(-c4cccc5cccnc45)o3)cc21 [Ex-100, 7-methoxy-2-(5-(quinolin-8-yl)-1,3,4-oxadiazol-2-yl)pyrazolo[1,5-c]quinazolin-5-amine]	0.019 µM
COc1cccc2c1nc(N)n1nc(-c3nnc(N4CCOCC4)o3)cc21 [Ex-101, 7-methoxy-2-(5-morpholino-1,3,4-oxadiazol-2-yl)pyrazolo[1,5-c]quinazolin-5-amine]	0.039 µM
COc1cccc2c1nc(N)n1nc(-c3nnc(N4CCN(c5ccccc5)CC4)o3)cc21 [Ex-102, 7-methoxy-2-(5-(4-phenylpiperazin-1-yl)-1,3,4-oxadiazol-2-yl)pyrazolo[1,5-c]quinazolin-5-amine]	0.033 µM
COc1cccc2c1nc(N)n1nc(-c3nnc(NCc4ccc(F)cc4F)o3)cc21 [Ex-103, 5-(5-amino-7-methoxypyrazolo[1,5-c]quinazolin-2-yl)-N-(2,4-difluorobenzyl)-1,3,4-oxadiazol-2-amine]	0.023 µM
Nc1nc2ccc(F)cc2c2cc(Cc3ccccc3)nn12 [Ex-104, 2-benzyl-9-fluoropyrazolo[1,5-c]quinazolin-5-amine]	0.067 µM
Nc1nc2ccc(F)cc2c2cc(Cc3cccc4cccnc34)nn12 [Ex-105, 9-fluoro-2-(quinolin-8-ylmethyl)pyrazolo[1,5-c]quinazolin-5-amine]	0.045 µM
Nc1nc2ccc(F)cc2c2cc(Cc3ccccc3N3CCOCC3)nn12 [Ex-106, 9-fluoro-2-(2-morpholinobenzyl)pyrazolo[1,5-c]quinazolin-5-amine]	0.065 µM
Nc1nc2ccc(F)cc2c2cc(Cc3cccnc3N3CCOCC3)nn12 [Ex-107, 9-fluoro-2-((2-morpholinopyridin-3-yl)methyl)pyrazolo[1,5-c]quinazolin-5-amine]	0.123 µM
Nc1nc2c(F)cccc2c2cc(Cc3ccccc3)nn12 [Ex-108, 2-benzyl-7-fluoropyrazolo[1,5-c]quinazolin-5-amine]	0.014 µM
Nc1nc2c(F)cccc2c2cc(Cc3cccc4cccnc34)nn12 [Ex-109, 7-fluoro-2-(quinolin-8-ylmethyl)pyrazolo[1,5-c]quinazolin-5-amine]	0.006 µM
Nc1nc2c(F)cccc2c2cc(C(=O)N3CCN(c4ccccn4)CC3)nn12 [Ex-110, (5-amino-7-fluoropyrazolo[1,5-c]quinazolin-2-yl)(4-(pyridin-2-yl)piperazin-1-yl)methanone]	0.032 µM
Nc1nc2c(F)cccc2c2cc(C(=O)N3CCN(c4ccc(F)cc4F)CC3)nn12 [Ex-111, (5-amino-7-fluoropyrazolo[1,5-c]quinazolin-2-yl)(4-(2,4-difluorophenyl)piperazin-1-yl)methanone]	0.094 µM
Nc1nc2c(F)cccc2c2cc(-c3nnc(-c4cccc5cccnc45)o3)nn12 [Ex-112, 7-fluoro-2-(5-(quinolin-8-yl)-1,3,4-oxadiazol-2-yl)pyrazolo[1,5-c]quinazolin-5-amine]	0.131 µM
Nc1nc2c(F)cccc2c2cc(-c3nnc(Cc4ccc5cccnc5c4)o3)nn12 [Ex-113, 7-fluoro-2-(5-(quinolin-7-ylmethyl)-1,3,4-oxadiazol-2-yl)pyrazolo[1,5-c]quinazolin-5-amine]	0.007 µM
Nc1nc2ccc(F)cc2c2cc(C(=O)N3CCN(c4ccc(F)cc4F)CC3)nn12 [Ex-114, (5-amino-9-fluoropyrazolo[1,5-c]-quinazolin-2-yl)(4-(2,4-difluorophenyl)piperazin-1-yl)methanone]	0.008 µM
Nc1nc2ccc(F)cc2c2cc(C(=O)N3CCN(c4ccccn4)CC3)nn12 [Ex-115, (5-amino-9-fluoropyrazolo[1,5-c]-quinazolin-2-yl)(4-(pyridin-2-yl)-piperazin-1-yl)methanone]	0.041 µM
